In PubChem BioAssay (NCI):
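Values below derive from 48-hour exposures of cells grown in 96-well plates, with endpoints linearly interpolated between the two concentrations bracketing the appropriate inhibition level. GI50 marks 50% less growth. TGI is the concentration that stops growth completely.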

How the values were obtained:
Test in all cases: inhibition of tumour cell growth, NCI panel, 48 h
UO-31 renal = test system: UO-31 renal
SN12C renal = test system: SN12C renal
SW-620 colon = test system: SW-620 colon
SF-295 CNS = test system: SF-295 CNS
HOP-62 NSCLC = test system: HOP-62 NSCLC
NCI/ADR-RES ovarian = test system: NCI/ADR-RES ovarian
A498 renal = test system: A498 renal
MALME-3M melanoma = test system: MALME-3M melanoma
UACC-257 melanoma = test system: UACC-257 melanoma
MDA-MB-231 breast = test system: MDA-MB-231 breast

Compound | GI50 (UO-31 renal) [µM] | TGI (UO-31 renal) [µM] | GI50 (SN12C renal) [µM] | TGI (SN12C renal) [µM] | GI50 (SW-620 colon) [µM] | TGI (SW-620 colon) [µM] | GI50 (SF-295 CNS) [µM] | TGI (SF-295 CNS) [µM] | GI50 (HOP-62 NSCLC) [µM] | TGI (HOP-62 NSCLC) [µM] | GI50 (NCI/ADR-RES ovarian) [µM] | TGI (NCI/ADR-RES ovarian) [µM] | GI50 (A498 renal) [µM] | TGI (A498 renal) [µM] | GI50 (MALME-3M melanoma) [µM] | TGI (MALME-3M melanoma) [µM] | GI50 (UACC-257 melanoma) [µM] | TGI (UACC-257 melanoma) [µM] | GI50 (MDA-MB-231 breast) [µM] | TGI (MDA-MB-231 breast) [µM]
CN1CCN(CCCn2c(=O)c3sc4ncccc4c3n3nnc(-c4ccccc4)c23)CC1 | 5.1 | 12 | 7.2 | 14.2 | 5.34 | 11.5 | 5.63 | 12.4 | 8.19 | 15.3 | 7.19 | 14.2 | 0.159 | 9.37 | 9.41 | 17.9 | 2.27 | 7.62 | 6.88 | 13.6
N=Nc1c(OC(=O)Nc2cccc(Cl)c2)[nH]c2ccccc12 |  | 13.1 |  | 14.8 |  | 24.6 |  | 5.99 |  | 13.1 |  | 21.4 |  | 26.1 |  | 26.5 |  | 26.7 |  | 26.7
OCc1ccc(-c2ccc(-c3ccc(CO)s3)o2)s1 |  | > 84.7 |  | 81 |  | > 100 |  | 74.1 |  | 17.2 |  | 71.5 |  | 0.0278 |  | > 88.8 |  | 0.0669 |  | > 92.2
Cc1ccccc1S(=O)(=O)OC1NS(=O)(=O)c2ccccc21 (centres undefined) |  | > 100 |  | > 100 |  | > 100 |  | > 100 |  | > 100 |  | > 100 |  | > 100 |  | > 100 |  | > 100 |  | > 100
CC(C)[C@H]1COC(=O)N1[C@@H]1C(=O)N([C@@H](CCC(=O)N2CCN(C3CCCC3)CC2)C(=O)N[C@@H]2CCCc3ccccc32)[C@@H]1/C=C/c1cccc(Br)c1 | 1.49 | 3.04 | 2.27 | 5.51 | 1.95 | 4.57 | 2.15 | 5.05 | 1.82 | 4.96 | 2.98 | 11.8 | 1.4 | 4.04 | 1.62 | 3.26 | 1.63 | 3.44 | 1.86 | 3.77
C[C@@H]1CCC2[C@@H](C)[C@@H](OCC(CO[C@H]3OC4O[C@@]5(C)CC[C@H]6[C@H](C)CCC([C@H]3C)[C@@]46OO5)OC(=O)CCC(=O)O)OC3O[C@@]4(C)CC[C@@H]1[C@]32OO4 (some centres undefined) | 1.57 | > 46 | 0.374 | 23.4 | 0.0285 | 18.1 | 0.0335 | 15.8 | 0.99 | 22.1 | 0.245 | 6.23 | 13.8 | 31.3 | < 0.01 | 12.4 | 0.708 | 37.3 | 0.0602 | 7.95
COc1ccc(-c2nnc(COc3ccc(C(=O)/C=C/c4ccco4)cc3)o2)cc1 | 2.32 | 6.69 | 3.17 | 11.5 | 1.91 | 4.11 | 3.75 | 14.7 | 2.5 | 7.23 | 8.62 | 25 | 11.4 | 23.6 | 2.82 | 7.43 | 2.94 | 10.5 | 2.99 | 10.4
C=C1NC(=O)C(C(C)CC)NC(=O)C2CSCC(NC(=O)CCC(=O)O)C(=O)NC(Cc3ccccc3)C(=O)NC(C)C(=O)NC(CC(C)CC)C(=O)NC(C(=O)NC(Cc3ccccc3)C(=O)N3CCCC3C(=O)N2)C(C)OC(=O)C(CO)NC(=O)C(C(O)COC)N(C)C(=O)C(C(C)C)NC(=O)C(CC(C)CC)NC1=O (centres undefined) | 0.567 | > 6 | 0.0707 | > 6 | 0.0175 | > 6 | 0.00594 | > 6 | 0.0198 | > 6 | 0.0304 | > 6 | 0.00667 | 0.512 | 0.0326 | > 6 | > 6 | > 6 | 0.0201 | 3.24
Fc1cc2[nH]ncc2c2c3c(c(-c4cn[nH]c4)nc12)CCCC3 | 0.896 | 3.87 | 1.06 | 7.04 | 0.451 | > 26.6 | 1.44 | 6.44 | 1.6 | > 21 | 2.38 | 7.9 | 0.365 | 1.64 | 0.953 | 3.16 | 1.72 | 5.69 | 1.5 | 5.24
CCOC(=O)c1cc2nc3ccccc3c(=O)n2c2ccccc12 |  | > 10 |  | > 10 |  | > 10 |  | > 10 |  | > 10 |  | > 10 |  | > 10 |  | > 10 |  | > 10 |  | > 10
O=C1c2cc3c(cc2-c2c1c1ccc(F)cc1c(=O)n2CCCNCCO)OCO3 | 0.0292 | 0.148 | 0.108 | 0.861 | 0.0218 | 1 | 0.0224 | 0.114 | 0.0366 | 0.496 | 0.0374 | 1.08 | 0.137 | 0.491 | 0.102 | 0.729 | 0.123 | 0.853 | 0.255 | 1.06
Cc1cc2c(cc1Cl)SC(N(N(C)C)S(=O)(=O)c1ccc(Cl)cc1)=NS2(=O)=O | 28.3 | > 100 | 24.3 | 72 | 32.5 | > 100 | 30.3 | > 100 | 29.6 | 96.1 | 28 | > 100 | 15.8 | 37.6 | 22 | 62 | 23.8 | 88.5 | 22.5 | 55
C=C(Br)C(C)(Br)CCC(Br)C(C)(C)Cl (centres undefined) |  | 32 |  | 39.5 |  | 30.4 |  | 32.7 |  | 39.4 |  | 54.2 |  | 45.5 |  | 39.3 |  | 37.4 |  | 34.8
O=C(CCc1nnc2sc(-c3ccc(Cl)cc3Cl)nn12)c1nc2ncccc2[nH]1 | 1.13 | 2.33 | 1.99 | 4.92 | 1.56 | 3.68 | 1.83 | 3.44 | 2.18 | 6.77 | 2.71 | 9.12 | 1.11 | 2.41 | 1.85 | 4.1 | 3 | 9.01 | 1.74 | 4.36
CCN(CC)/C(SCc1ccccc1)=C(\C(Cl)=C(Cl)Cl)[N+](=O)[O-] |  | 38.9 |  | 42.4 |  | 50.4 |  | > 100 |  | 45.6 |  | 38 |  | 26.9 |  | 21.8 |  | 31.8 |  | 49.7
CC1(C)C2CCC(=O)C1CC2 (centres undefined) |  | > 100 |  | > 100 |  | > 100 |  | > 100 |  | > 100 |  | > 100 |  | > 100 |  | > 100 |  | > 100 |  | > 100
Cc1cc(O)c(/C=N/C(=S)NCc2ccccc2)c(=O)o1 |  | > 100 |  | > 100 |  | > 100 |  | > 100 |  | > 100 |  | > 100 |  | > 100 |  | > 100 |  | > 100 |  | > 100
NC1(C(=O)OCc2ccccc2)CCCC1 |  | 43.3 |  | 54 |  | > 100 |  | 34.7 |  | 46.7 |  | > 100 |  | > 100 |  | 31.8 |  | 41.9 |  | 36.4
CC(=O)OC1=CC(n2cc(F)c(=O)[nH]c2=O)OC(C)C1=O (centres undefined) |  | > 100 |  | > 100 |  | > 100 |  | > 100 |  | > 100 |  | > 100 |  | > 44.9 |  | > 100 |  | > 100 |  | > 100
Cc1ccc(S(=O)(=O)Nc2ccccc2C(=O)c2ccc(C)c(C)c2)cc1 |  | > 100 |  | > 100 |  | > 100 |  | > 100 |  | > 100 |  | > 100 |  | > 100 |  | > 100 |  | > 100 |  | > 100
COc1ccc(-c2nnc(COc3ccc(NC(=O)Nc4cc(C(F)(F)F)cc(C(F)(F)F)c4)cc3F)o2)cc1 | 2.09 | 7.84 | 1.93 | 5.39 | 2.19 | 5.72 | 2.11 | 5.21 | 2.69 | 7.12 | 1.91 | 5.16 | 1.56 | 5.03 | 1.85 | 4.77 | 2.08 | 5.51 | 1.99 | 4.54
COc1ccc(/C=C(/C#N)n2nnc3cccc(F)c32)cc1 | 1.8 | 6.87 | 1.93 | > 100 | 0.399 | > 100 | 2.35 | 17.8 | 3.25 | > 100 | 0.371 | 3.37 | 1.22 | 4.1 | 0.69 | > 100 | 77.8 | > 100 | 1.37 | 3.84
COc1c(Cl)c(=O)oc2ccc(Cl)cc12 |  | > 100 |  | > 100 |  | > 100 |  | > 100 |  | > 100 |  | > 100 |  | > 100 |  | > 100 |  | > 100 |  | > 100
NS(=O)(=O)c1cc(Br)c(N=Nc2ccc(O)c3ncccc23)c(Br)c1 |  | 89.6 |  | > 100 |  | > 100 |  | > 100 |  | > 100 |  | 65.5 |  | 67.9 |  | 79.6 |  | 67.3 |  | > 100
CSc1nc(NC2OCC(OC(C)=O)C(OC(C)=O)C2OC(C)=O)c(N=CC=Nc2c(NC3OCC(OC(C)=O)C(OC(C)=O)C3OC(C)=O)nc(SC)[nH]c2=O)c(=O)[nH]1 (centres undefined) |  | > 100 |  | > 100 |  | > 100 |  | > 100 |  | > 92.6 |  | > 100 |  | > 100 |  | > 100 |  | > 100 |  | > 100
CCN1CCN(c2nc(C)cc(N(CCNc3ccnc4cc(Cl)ccc34)Cc3ccc4c(c3)OCO4)n2)CC1 | 1.36 | 2.72 | 2.58 | 8.27 | 1.62 | 3.55 | 1.76 | 3.38 | 2.21 | 11.5 | 2.82 | 10.8 | 1.9 | 5.71 | 1.84 | 3.44 | 1.83 | 3.6 | 1.38 | 3.19
Nc1ncnc2n[nH]c(Nc3ccc(F)cc3)c12 | 5.93 | > 100 | 35.6 | > 100 | 18.2 | > 100 | > 100 | > 100 | 64.8 | > 100 | 65.3 | > 100 | 8.33 | 92.8 | 30.6 | > 100 | 67.7 | > 100 | 21.5 | 81.2
O=C(/C=C/c1ccc(Cl)cc1)c1ccc(Nc2ccnc3cc(Cl)ccc23)cc1 | > 74.7 | > 100 | > 100 | > 100 | 6.05 | > 67.5 |  | > 48.8 | 99.2 | > 100 | > 100 | > 100 | > 44.7 | > 71.8 | > 100 | > 100 | > 100 | > 100 | 20.3 | > 58.4
COC(=O)C1=C(C)NC(C)=C(C(=O)OCCCN2CCC(c3ccccc3)(c3ccccc3)CC2)C1c1cccc([N+](=O)[O-])c1 (centres undefined) |  | 3.89 |  | 2.99 |  | 3.75 |  | 3.18 |  | 9.16 |  | 3.42 |  | 8.69 |  | 3.66 |  | 3.1 |  | 2.65
